Laboratory results published in BigSolDB 2.1.

O=[N+]([O-])c1cc[nH]n1
solubility (mole fraction)
Settings	283.15 K	288.15 K	293.15 K	298.15 K	303.15 K	308.15 K	313.15 K	318.15 K	323.15 K
in THF	0.00254	0.00305	0.00386	0.00456	0.00553	0.00654	0.00761	0.00903	0.0106
in acetone	0.0129	0.0152	0.0177	0.0202	0.0228	0.0261	0.0301	0.0339	0.0376
in acetonitrile	0.0148	0.017	0.0195	0.0223	0.0254	0.0289	0.0327	0.037	0.0418
in benzene	0.00052	0.00066	0.00086	0.00109	0.00139	0.00171	0.00215	0.00265	0.00323
in ethanol	0.0254	0.0292	0.0328	0.0364	0.041	0.0449	0.0548	0.0599	0.0646
in ethyl acetate	0.00586	0.00728	0.00905	0.0107	0.0133	0.0163	0.0196	0.0236	0.0282
in isopropyl acetate	0.00234	0.00292	0.00364	0.00456	0.00566	0.00695	0.00849	0.0102	0.0125
in methanol	0.00822	0.0131	0.017	0.0208	0.0256	0.0338	0.0455	0.0605	0.0854
in methyl acetate	0.0083	0.0102	0.0125	0.0149	0.0178	0.0209	0.0244	0.0282	0.032
in n-butyl acetate	0.00323	0.00423	0.00542	0.00687	0.00865	0.0107	0.0132	0.0159	0.0191
in n-propanol	0.0224	0.0255	0.0295	0.0336	0.0384	0.0442	0.0481	0.0551	0.0627
in n-propyl acetate	0.00676	0.00793	0.0092	0.0106	0.0123	0.0142	0.0165	0.0193	0.0225
in toluene	0.00148	0.00187	0.00232	0.00286	0.00354	0.00437	0.00514	0.00623	0.00729
in water	0.00032	0.0004	0.00051	0.00065	0.00083	0.00105	0.00133	0.0017	0.00216
